Laboratory results published in patent US8846644B2, “Phosphate-containing nanoparticle delivery vehicle” (priority 2009, dated 2014).

Assay: Hydrophilicity test (dispersion)
Assay type: physicochemical

dispersion (hydrophilicity): 0.4 µg/mL
SMILES: CC(=O)O[C@H]1C(=O)[C@@]2(C)[C@H]([C@H](OC(=O)c3ccccc3)[C@]3(O)C[C@H](OC(=O)[C@H](O)[C@@H](NC(=O)c4ccccc4)c4ccccc4)C(C)=C1C3(C)C)[C@]1(OC(C)=O)CO[C@@H]1C[C@@H]2O [paclitaxel]
